Reference: patent US10774071B2, “PD-1/PD-L1 inhibitors” (Gilead Sciences, Inc., priority 2018, dated 2020)
Read-outs that look alike come from different tables or passages of the source.

Assays:
FFA1 (h) (GPR40) = FFA1 (h) (GPR40) (Homo sapiens (Human), UniProt O14842); assay: GPR40 functional assay, antagonist effect (intracellular Ca2+, fluorimetry); assay type: cell-based; settings: HEK293, human recombinant GPR40 in HEK-293 cells, stimulus linoleic acid 20000 nM
Protocol: (§1) Select compounds were tested in a functional GRP40 assay as described in Briscoe, C. P. et al. (Brit. J. Pharmacol., (2006), 148: 619-628) to determine agonist/antagonist activity. […] Using a HEK-293 cell line transiently transduced to express GPR40, the agonist/antagonist activity of select compounds has been assessed.

PD-L1 = PD-L1 (Homo sapiens (Human), UniProt Q9NZQ7); assay: PD-L1/PD-L1 dimerization biochemical protein-protein interaction assay (ALPHA); assay type: binding; settings: 0.5 nM His tagged PD-L1 and 0.5 nM FLAG tagged PD-L1, Table 4B, read-out: AC50 PDL1 Dimer 1 nM
Chain of PD-L1 (Q9NZQ7 19-238): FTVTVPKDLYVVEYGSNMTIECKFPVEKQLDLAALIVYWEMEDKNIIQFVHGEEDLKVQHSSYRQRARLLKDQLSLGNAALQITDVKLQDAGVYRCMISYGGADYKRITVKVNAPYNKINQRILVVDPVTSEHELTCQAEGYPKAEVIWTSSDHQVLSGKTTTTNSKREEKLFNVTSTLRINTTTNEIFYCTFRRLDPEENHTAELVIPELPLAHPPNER
Chain of PD-L1 (Q9NZQ7 19-238): as above

FFA1 (h) (GRP40) = FFA1 (h) (GRP40) (Homo sapiens (Human), UniProt O14842); assay: GPR40 functional assay, agonist effect (intracellular Ca2+, fluorimetry); assay type: cell-based; settings: HEK293, human recombinant GPR40 in HEK-293 cells, control 100 μM linoleic acid
Chain of FFA1 (h) (GRP40) (O14842 whole entry): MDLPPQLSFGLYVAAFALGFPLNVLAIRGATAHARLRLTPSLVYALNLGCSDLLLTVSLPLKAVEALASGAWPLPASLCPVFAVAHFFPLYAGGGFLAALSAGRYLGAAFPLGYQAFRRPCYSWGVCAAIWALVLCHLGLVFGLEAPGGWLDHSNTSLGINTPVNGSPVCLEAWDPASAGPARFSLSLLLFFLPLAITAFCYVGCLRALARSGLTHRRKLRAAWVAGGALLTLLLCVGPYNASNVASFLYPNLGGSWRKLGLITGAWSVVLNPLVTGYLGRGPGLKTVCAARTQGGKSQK
Protocol: as §1

PD-1/PD-L1 = PD-1/PD-L1 (Homo sapiens (Human), UniProt Q9NZQ7); assay: PD-1/PD-L1 biochemical protein-protein interaction assay (ALPHA); assay type: binding; settings: 0.3 nM His tagged PD-L1, 2.5 nM biotinylated Fc-PD-1, Table 3B, read-out: IC50 PD-L1-PD1
Chain of PD-1/PD-L1 (Q9NZQ7 19-238): as the sequence (Q9NZQ7 19-238) above

Chain of FFA1 (h) (GPR40) (O14842 whole entry): as the sequence (O14842 whole entry) above

inhibition at 10 µM (FFA1 (h) (GPR40); 1st replicate, read-out: % inhibition of control agonist response, 1st): 30.5%
inhibition at 10 µM (FFA1 (h) (GPR40); 2nd replicate, read-out: % inhibition of control agonist response, 2nd): 17%
inhibition at 10 µM (FFA1 (h) (GPR40); mean, read-out: % inhibition of control agonist response, Mean): 23.7%
AC50 (PD-L1): 3.77 nM
activity at 10 µM (FFA1 (h) (GRP40); 1st replicate, read-out: % of control agonist response, 1st): -0.4%
activity at 10 µM (FFA1 (h) (GRP40); 2nd replicate, read-out: % of control agonist response, 2nd): -0.5%
activity at 10 µM (FFA1 (h) (GRP40); mean, read-out: % of control agonist response, Mean): -0.4%
IC50 (PD-1/PD-L1): 0.064 nM
SMILES: COc1nc(-c2cccc(-c3cccc4c3CC[C@@H]4Oc3nc(OC)c(CNC4(C(=O)O)CC4)cc3C(F)(F)F)c2Cl)ccc1CNC[C@@H]1CCC(=O)N1 [B-36]
